Measurements as given in publication PMC8466554, “Heteroaryl-Ethylenes as New Lead Compounds in the Fight against High Priority Bacterial Strains” (Antibiotics, 2021).
Converted amounts (≈) assume the structure as drawn. “And” between values parts separate entries of the source, which are not always exact repeats. Equal values may be shown once. Read-outs that look alike come from different tables or passages of the source.

Experiments:
S.aureus Mu50-VISA = assay: MIC and MBC microtiter plate assay; format: cell-based, Staphylococcus aureus
S.aureus USA300-CAMRSA = assay: MIC and MBC microtiter plate assay; format: cell-based, Staphylococcus aureus
S.aureus ATCC29213-MSSA = assay: MIC and MBC microtiter plate assay; format: cell-based, Staphylococcus aureus
S.aureus ATCC12598-MSSA = assay: MIC and MBC microtiter plate assay, also with different inocula; format: cell-based, Staphylococcus aureus
[1] = test system: E. faecalis ATCC51299-VRE; assay: as above; format: cell-based
[2] = test system: E. faecalis ATCC29212-VSE; assay: MIC and MBC microtiter plate assay; format: cell-based
A. baumannii ATCC17978 = assay: MIC and MBC microtiter plate assay, also with different inocula; format: cell-based, Acinetobacter baumannii; details: A. baumannii ATCC17978
E. coli ATCC25922 = assay: as above; format: cell-based, Escherichia coli
P. aeruginosa ATCC27853 = assay: MIC microtiter plate assay; format: cell-based, Pseudomonas aeruginosa
K. pneumoniae ATCC700603 = assay: MIC microtiter plate assay; format: cell-based, Klebsiella pneumoniae
[3] = test system: K. pneumoniae ATCC BAA-2814; assay: MIC microtiter plate assay; format: cell-based, Klebsiella pneumoniae; details: K. pneumoniae ATCC BAA-2814 (MDR strain)
[4] = test system: Gram-positive control strains; assay: MIC and MBC, summary over Gram-positive control strains; format: cell-based, S. aureus and Enterococcus spp.; details: Gram-positive control strains
[5] = test system: Gram-positive and Gram-negative ATCC strains; assay: MIC and MBC, summary over Gram-positive and Gram-negative strains; format: cell-based; details: bactericidal effect defined as MBC/MIC ≤ 4
CaCo-2 cells = assay: MTT cytotoxicity assay; format: cell-based, human; details: 24 h of incubation relative to untreated controls
Procedure: To evaluate the biological activity of the PBn series, compounds were screened for toxicity against the colon-rectal cancer cell line CaCo-2 (ATCC HTB-37). These human cancer cells were treated with solutions of the compounds at decreasing concentrations, starting from 100 μM up to 0.01 μM. The reference compound used for these assays was 5-Fluorouracil (5-Fu), a pyrimidine analogue belonging to the family of antimetabolite. […] Briefly, human colorectal adenocarcinoma cells (CaCo-2 HTB-37^TM Colorectal Adenocarcinoma Human, American Type Culture Collection, Manassas, VA, USA) were grown in Dulbecco’s MEM (DMEM) with 10% heat-inactivated fetal bovine serum, 2 mM L-Alanyl-L-Glutamine, penicillin-streptomycin (50 units-50 μg for mL) and incubated at 37 °C in a humidified atmosphere of 5% CO2, 95% air. CaCo-2 cells were plated in 96 well pates and incubated at 37 °C. The PBn series compounds and 5-FU were prepared as a 1 mM solution in 10 mL with 0.01% DMSO. Then, 24 h after plating, cells were treated with 20 μL of each solution. Untreated cells were used as controls. […] The results were read on a multiwell scanning spectrophotometer (AF2200 plate reader, Eppendorf, Milan, Italy), using a wavelength of 569 nm.

S. aureus ATCC29213 = test system: S. aureus ATCC29213; set-up: method as in earlier work; details: library for the QSAR model, ref [1]; cited from earlier work
[6] = S.aureus ATCC12598-MSSA, value in brackets
[7] = E. faecalis ATCC51299-VRE, value in brackets

CCCCN(CCCC)c1ccc(-c2ccc(C=C3CCCc4c[n+](CC)ccc43)s2)s1.[I-] [PB8]
MBC (S.aureus Mu50-VISA): 8 µg/mL | MIC (S.aureus Mu50-VISA): 2 µg/mL | MBC (S.aureus Mu50-VISA; value in brackets): 13.83 µM | MIC (S.aureus Mu50-VISA; value in brackets): 3.46 µM | MBC (S.aureus USA300-CAMRSA): 4 µg/mL | MIC (S.aureus USA300-CAMRSA): 2 µg/mL | MBC (S.aureus USA300-CAMRSA; value in brackets): 6.91 µM | MIC (S.aureus USA300-CAMRSA; value in brackets): 3.46 µM | MBC (S.aureus ATCC29213-MSSA): 8 µg/mL | MIC (S.aureus ATCC29213-MSSA): 2 µg/mL | MBC (S.aureus ATCC29213-MSSA; value in brackets): 13.83 µM | MIC (S.aureus ATCC29213-MSSA; value in brackets): 3.46 µM | MIC (S.aureus ATCC12598-MSSA; S. aureus ATCC12598, inoculum 1.00101 (1 × 10^1 CFU/mL)): 0.5 mg/L and 0.86 μM | MIC (S.aureus ATCC12598-MSSA; S. aureus ATCC12598, inoculum 1.00102 (1 × 10^2 CFU/mL)): 2 mg/L and 3.46 μM | MIC (S.aureus ATCC12598-MSSA; S. aureus ATCC12598, inoculum 1.00103 (1 × 10^3 CFU/mL)): 3.46 μM and 2 mg/L | MIC (S.aureus ATCC12598-MSSA; S. aureus ATCC12598, inoculum 1.00104 (1 × 10^4 CFU/mL)): 2 mg/L and 3.46 μM | MIC (S.aureus ATCC12598-MSSA; S. aureus ATCC12598, inoculum 1.00105 (1 × 10^5 CFU/mL, standard)): 2 mg/L and 3.46 μM | MIC (S.aureus ATCC12598-MSSA; S. aureus ATCC12598, inoculum 1.00106 (1 × 10^6 CFU/mL)): 2 mg/L and 3.46 μM | MIC (S.aureus ATCC12598-MSSA; S. aureus ATCC12598, inoculum 1.00107 (1 × 10^7 CFU/mL)): 4 mg/L and 6.91 μM | MBC (S.aureus ATCC12598-MSSA; S.aureus ATCC12598-MSSA): 4 µg/mL | MIC (S.aureus ATCC12598-MSSA; S.aureus ATCC12598-MSSA): 2 mg/L | MBC (S.aureus ATCC12598-MSSA; [6]): 6.91 µM | MIC (S.aureus ATCC12598-MSSA; [6]): 3.46 µM | MBC ([1]; E. faecalis ATCC51299-VRE): 4 µg/mL | MIC ([1]; E. faecalis ATCC51299-VRE): 4 mg/L | MBC [1, 7]: 6.91 µM | MIC [1, 7]: 6.91 µM | MIC ([1]; E. faecalis ATCC51299, inoculum 1.00101 (1 × 10^1 CFU/mL)): 0.5 mg/L and 0.86 μM | MIC ([1]; E. faecalis ATCC51299, inoculum 1.00102 (1 × 10^2 CFU/mL)): 4 mg/L and 6.91 μM | MIC ([1]; E. faecalis ATCC51299, inoculum 1.00103 (1 × 10^3 CFU/mL)): 4 mg/L and 6.91 μM | MIC ([1]; E. faecalis ATCC51299, inoculum 1.00104 (1 × 10^4 CFU/mL)): 4 mg/L and 6.91 μM | MIC ([1]; E. faecalis ATCC51299, inoculum 1.00105 (1 × 10^5 CFU/mL, standard)): 4 mg/L and 6.91 μM | MIC ([1]; E. faecalis ATCC51299, inoculum 1.00106 (1 × 10^6 CFU/mL)): 8 mg/L and 13.83 μM | MIC ([1]; E. faecalis ATCC51299, inoculum 1.00107 (1 × 10^7 CFU/mL)): 32 mg/L and 55.30 μM | MBC [2]: 4 µg/mL | MIC [2]: 4 µg/mL | MBC ([2]; value in brackets): 6.91 µM | MIC ([2]; value in brackets): 6.91 µM | MIC (A. baumannii ATCC17978): 128 µg/mL | MIC (A. baumannii ATCC17978; value in brackets): 221.22 µM | MIC (E. coli ATCC25922): 128 µg/mL | MIC (E. coli ATCC25922; value in brackets): 221.22 µM | MIC (P. aeruginosa ATCC27853): > 128 µg/mL | MIC (P. aeruginosa ATCC27853; value in brackets): > 221.22 µM | MIC (K. pneumoniae ATCC700603): > 128 µg/mL | MIC (K. pneumoniae ATCC700603; value in brackets): > 221.22 µM | MIC [3]: > 128 µg/mL | MIC ([3]; value in brackets): > 221.22 µM | comparison between MIC and MBC values [4]: no significant differences | MBC/MIC [5]: ≤ 4 | IC50 (CaCo-2 cells): 5.01 µM and 5 µM

COc1cc(/C=C/c2ccc(O)c(O)c2)cc(OC)c1 [[33]-1]
MIC (S. aureus ATCC29213): 128 µg/mL (≈ 470 µM)
